Data set [1] concerns the target T1, human AChE (Homo sapiens, UniProt P22303).
T1 construct: purchased Sigma-Aldrich
Kind of data set: In vitro cholinesterase inhibition (Ellman), AChE. The data set is classed as biochemical. As for the experimental part: (§1) Inhibitory activities of the tested compounds against AChE and BChE were measured according to Ellman et al.. Enzyme-catalysed hydrolysis of ATCHh was carried out at 25 °C in 0.1 M phosphate buffer (pH 8.0) containing 0.25 U AChE, 1 mM ATCHh as substrates, and 0.1 mM of DTNB. In experiments with BuChE, 0.1 M phosphate buffer (pH 7.0) and BuTChh as a substrate were used. The tested compounds were pre-incubated with the enzyme for two minutes prior to the addition of the substrate and the subsequent recording of hydrolysis kinetics. […] A sample without an inhibitor was used as a control (100% cholinesterase activity). A sample without a substrate was used as a blank. Experiments were performed in triplicate.

Another data set deals with T2, BChE from human plasma (Homo sapiens, UniProt P06276).
T2 construct: butyrylcholiesterase from human plasma; purchased Sigma-Aldrich; host or cells: human plasma
T2 sequence (P06276 29-602): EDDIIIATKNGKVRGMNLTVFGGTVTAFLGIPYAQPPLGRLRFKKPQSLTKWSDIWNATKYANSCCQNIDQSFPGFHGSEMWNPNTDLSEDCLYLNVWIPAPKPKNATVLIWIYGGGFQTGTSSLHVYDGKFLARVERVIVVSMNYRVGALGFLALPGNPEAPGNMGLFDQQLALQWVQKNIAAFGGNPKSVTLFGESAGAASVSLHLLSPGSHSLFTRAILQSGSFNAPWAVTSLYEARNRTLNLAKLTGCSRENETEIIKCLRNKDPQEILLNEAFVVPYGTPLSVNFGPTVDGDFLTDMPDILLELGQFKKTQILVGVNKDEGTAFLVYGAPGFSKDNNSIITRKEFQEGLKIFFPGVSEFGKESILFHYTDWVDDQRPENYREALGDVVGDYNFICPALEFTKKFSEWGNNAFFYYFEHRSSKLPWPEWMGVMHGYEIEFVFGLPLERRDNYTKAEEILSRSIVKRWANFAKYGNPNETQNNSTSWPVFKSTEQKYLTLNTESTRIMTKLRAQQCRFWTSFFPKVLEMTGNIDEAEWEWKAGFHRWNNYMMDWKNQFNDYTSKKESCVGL
Nature of the data set: In vitro cholinesterase inhibition (Ellman), BuChE. The data set is classed as biochemical. As for the experimental part: as §1
On the technique in general: DTNB colorimetry detects thiols as they appear.

Data set [2] deals with T1, human AChE. Kind of data set: Inhibition constants (Dixon and Cornish–Bowden plots), AChE. The data set is classed as biochemical. The protocol: (§2) Experiments were performed using four different concentrations of ATCh as a substrate for AChE, and with BuTCh as a substrate for BuChE. According to the analysis of Dixon and Cornish–Bowden plots for bisuracil 2b, AChE and BuChE inhibition is of a mixed type characterised both by competitive inhibition (Kci) and uncompetitive inhibition (Kui) components. For AChE, Kci was determined to be 55.7 ± 8.1 pM while Kui = 156 ± 18 pM (Figure 3A,B), and Kci = 0.13 ± 0.02 mM while Kui = 0.7 ± 0.06 mM for BuChE (Figure 3C,D). Inhibition of AChE and BuChE by bisuracil 3c was of a mixed type. For the AChE constant, Kci was 0.7 ± 0.04 nM while Kui 4.45 ± 1.76 nM (Figure 4A,B); for the BuChE constant, Kci = 0.04 ± 0.007 мM while Kui = 0.68 ± 0.08 мM (Figure 4C,D).
(§3) A UV-1800 Shimadzu (Shimadzu Co., Kyoto, Japan) spectrophotometer was utilised to conduct the measurements. The final enzyme concentration in the assays was in the picomolar range. In order to ascertain the levels of spontaneous hydrolysis of the enzyme and substrate in the absence of an inhibitor, controls were performed for each substrate concentration. The change in absorption was then recorded over a period of three minutes. The inhibition constants were determined from a Dixon plot and Cornish–Bowden transformation.

For another data set, the target named is T3, human BuChE (Homo sapiens, UniProt P06276).
T3 construct: butyrylcholiesterase from human plasma; purchased Sigma-Aldrich; host or cells: human plasma
T3 sequence (P06276 29-602): as above
Kind of data set: Inhibition constants (Dixon and Cornish–Bowden plots), BuChE. The data set is classed as biochemical. The protocol: as §2, §3

Data set [3] can be described thus: Acute toxicity, single i.p. injection. The settings on record: CD-1, mouse, in vivo, ip, mice. As for the experimental part: Toxicological experiments were performed using a single i.p. injection of the tested compounds in CD-1 mice weighing 20–25 g. Stock solutions of the tested compounds were diluted in ethanol or water. The final ethanol dose was 100 mg/kg. Nine different doses of the tested compounds were used with 12 mice per dose. Animals were observed 7 days after injection, and symptoms of toxicity were recorded.

Data set [4] relates to mice poisoned with 2×LD50 of POX. Kind of data set: Protection against POX toxicity (pre-treatment). The data set is classed as in vivo. The settings on record: for n/N (mice surviving 5 days after POX poisoning / total): atropine 15 mg/kg i.p. 1 min after POX. The protocol: The concept of using reversible AChE inhibition as a preventive strategy to enhance the efficacy of traditional antidotes in OP poisoning is a well-established principle. This study explores the potential of bisuracil 2b as a preventive agent to protect AChE from irreversible inhibition caused by paraoxon (POX), a model OP. […] Following POX administration, the standard antidote atropine was given at a dose of 15 mg/kg within one minute. […] Increasing the dose of bisuracil 2b reduced the protective effect in POX poisoned animals (Table 3).
We also estimated the relative risk of death (RRD) as a function of precocity (from min to hours) over a period of 10 h by Cox survival analysis. Statistical differences in the number of surviving animals between experimental groups were tested using the Cox–Mantel multisample logarithmic rank criterion. It was shown that, in mice exposed to 0.42 mg/kg of POX, RRD = 1 (Figure 5). However, in animals that received atropine within 1 min after poisoning, POX-induced mortality was lower (RRD = 0.5; Figure 5).
The tested compound was administered via i.p. before POX injection.

The test system of data set [5] is mice. Nature of the data set: Rotarod test. The data set is classed as in vivo. The settings on record: 2b 0.01 mg/kg i.p.; control 173 ± 21 s, p = 0.125. As for the experimental part: (§4) The ability of effective doses of bisuracil 2b (0.01 mg/kg) and bisuracil 3c (5 mg/kg) to induce incapacitation was evaluated. Locomotor activity, measured as the total distance travelled, and exploratory behaviour, assessed by the number of rearings (head inclinations) and head dips, were evaluated using the open-field test. Additionally, motor coordination was analysed using the rotarod test, where the ability of mice to stay on the rotating rod was recorded. The compounds were administered i.p. 30 min before testing, while the control group received an equivalent volume of the vehicle.
To analyse motor function, rotarod and open-field tests were carried out. Mice were randomly divided into 3 groups (n = 12): a control group of mice and groups of mice treated with tested compounds. Tests were conducted 1 h after compound exposure. To assess motor function, mice were first placed on a rotarod treadmill (Ugo Basile, Italy). Rotation speed was fixed at 15 rpm, and the time that each mouse remained on the rod was recorded as the score, with a maximum duration of 300 s per trial. Each mouse underwent 3 trials. […] To assess motor function, the distance travelled in centimetres in the arena was measured, using VideoMot2 software (Version 8.02 (131) 03-07-17 (TSE Systems, Bad Homburg, Germany).
(The rotarod test checks motor coordination on a turning rod.)

The subject of data set [6] is mice. Kind of data set: Open-field test. The data set is classed as in vivo. The settings on record: 2b 0.01 mg/kg, 3c 5 mg/kg, i.p. As for the experimental part:
as §4
To analyse motor function, rotarod and open-field tests were carried out. Mice were randomly divided into 3 groups (n = 12): a control group of mice and groups of mice treated with tested compounds. Tests were conducted 1 h after compound exposure. To assess motor function, mice were first placed on a rotarod treadmill (Ugo Basile, Italy). Rotation speed was fixed at 15 rpm, and the time that each mouse remained on the rod was recorded as the score, with a maximum duration of 300 s per trial. Each mouse underwent 3 trials. After recording the length of time that mice managed to remain on the rotarod (latency to fall), the average of three trials was used for further analysis. Following the rotarod test, motor function was studied in an open field apparatus (Open Science, Krasnogorsk, Russia), as described in [39]. The numbers of rearing and head dips were estimated as indexes of exploratory activity. To assess motor function, the distance travelled in centimetres in the arena was measured, using VideoMot2 software (Version 8.02 (131) 03-07-17 (TSE Systems, Bad Homburg, Germany).

Structures are written as SMILES. Several values for one entry are separate records, joined by “and”; a condition that tells them apart may be missing. Equal values may be shown once. Read-outs that look alike come from different tables or passages of the source.

T1 sequence (P22303 32-614): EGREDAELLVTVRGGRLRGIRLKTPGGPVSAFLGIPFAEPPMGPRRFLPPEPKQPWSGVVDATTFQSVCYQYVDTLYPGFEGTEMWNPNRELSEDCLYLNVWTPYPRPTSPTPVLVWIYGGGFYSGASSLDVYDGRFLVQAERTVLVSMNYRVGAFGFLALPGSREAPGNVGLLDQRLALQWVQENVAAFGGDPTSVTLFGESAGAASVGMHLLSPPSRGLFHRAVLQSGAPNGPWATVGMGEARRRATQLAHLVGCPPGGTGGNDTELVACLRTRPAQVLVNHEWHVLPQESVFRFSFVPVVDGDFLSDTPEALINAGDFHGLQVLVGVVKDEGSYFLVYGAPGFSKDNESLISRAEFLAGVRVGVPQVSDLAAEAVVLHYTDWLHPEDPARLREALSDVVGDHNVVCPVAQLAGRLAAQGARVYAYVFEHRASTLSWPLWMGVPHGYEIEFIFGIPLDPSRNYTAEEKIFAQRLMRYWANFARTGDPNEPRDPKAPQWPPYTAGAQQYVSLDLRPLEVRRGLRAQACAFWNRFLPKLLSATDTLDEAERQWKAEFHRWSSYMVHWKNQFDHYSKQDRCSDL

A word on the IC50: it is the concentration at which inhibition is half-maximal. A word on the Ki: it is the dissociation constant of the complex between target and ligand, obtained from inhibition or displacement. A low value points to tighter binding. One may read the LD50 as the dose expected to kill half of the subjects tested. With `CC[N+](CC)(CCCCCn1c(=O)ccn(CCCCn2c(C)cc(=O)n(C)c2=O)c1=O)Cc1ccccc1C#N` [2b, 1,4-{(3,6-Dimethyluracil-1-yl)-[3-(5-o-nitrilebenzyl(diethyl)ammonio)pentyl)-uracil-1-yl]}butane bromide], the IC50 against human AChE [1] (AChE IC50, as printed in text and Figure 9) came out at 0.0649 nM; at human AChE [1] (IC50 AChE, Table 1, recombinant human AChE, 25 °C, pH 8.0), 0.06 ± 0.003 nM; at BChE from human plasma, 219000 ± 50000 nM. Besides, the inhibition constant (Ki) on human AChE [2] is 0.0557 ± 0.0081 nM; on human BuChE it was 130000 ± 20000 nM. Further, the “Kui (uncompetitive inhibition constant), AChE” value on human AChE [2] (ATCh as substrate) is listed as 156 ± 18 pM. In addition, the “type of AChE inhibition” value on human AChE [2] (Dixon and Cornish–Bowden plots) is reported as “mixed type”. The “Kui (uncompetitive inhibition constant), BuChE” value on human BuChE (BuTCh as substrate) is recorded as 0.7 ± 0.06 mM. Further, the “type of BuChE inhibition” value at human BuChE (Dixon and Cornish–Bowden plots) is reported as “mixed type”. Besides, the LD50 at 7 days in data set [3] (observed 7 days, read-out: LD50 (median lethal dose)) was 5.16 mg/kg; in data set [3] (read-out: LD50 95% confidence limits), 3.68 to 6.94 mg/kg. The “n/N (mice surviving 5 days after POX poisoning / total)” value in data set [4] (2b 0.005 mg/kg i.p. 30 min before POX 0.42 mg/kg i.p.) is 8/12; in data set [4] (2b 0.01 mg/kg i.p. 30 min before POX 0.42 mg/kg i.p.), 10 out of 12 and 10/12; in data set [4] (2b 0.05 mg/kg i.p. 30 min before POX 0.42 mg/kg i.p.), 7/12; in data set [4] (2b 0.1 mg/kg i.p. 30 min before POX 0.42 mg/kg i.p.) it was 5/12; in data set [4] (2b 0.5 mg/kg i.p. 30 min before POX 0.42 mg/kg i.p.), 4/12; in data set [4] (2b 1 mg/kg i.p. 30 min before POX 0.42 mg/kg i.p.) it was 4/12. Besides, the “relative risk of death (RRD) vs poisoned group treated only with atropine” value in data set [4] (2b 0.01 mg/kg pre-treatment, p = 0.02) was “significantly decreased”. The “relative risk of death (RRD)” value in data set [4] (2b doses above 0.01 mg/kg) is recorded as “did not result in a reduction”. The “mean fall time (rotarod)” value in the data set with mice [5] is on record as 124 ± 20 s. Besides, in the data set on mice [6], the “distance travelled (open field) vs control group” value is on record as “no significant differences”. In the data set with mice [6], the “number of rearings or head dips (open field)” value was “neither of the tested compounds significantly influenced”.

Source of the values: PMC12027946, “Ionic and Non-Ionic Counterparts Based on Bis(Uracilyl)Alkane Moiety with Highest Selectivity Towards Acetylcholinesterase for Protection Against Organophosphate Poisoning and Treating Alzheimer’s Disease” (International Journal of Molecular Sciences, 2025).
